Laboratory results as given in ChEMBL document CHEMBL1133223, “Mechanistic studies on prolyl-4-hydroxylase: the vitamin C requiring uncoupled oxidation” (Bioorg Med Chem Lett, 2000).
Square brackets hold non-standard residues; d marks the D form. Peptide text beside a SMILES is read from it. * marks the point of attachment. ΔPro = O=C(O)[C@@H]1C=CCN1; Cbz = O=C(OCc1ccccc1)*

Assays:
Format in all cases: ADME
[1] = V/K by incubating with prolyl-4-hydroxylase under standard assay conditions
[2] = Percent Vmax by incubating with prolyl-4-hydroxylase under standard assay conditions
[3] = Km by incubating with prolyl-4-hydroxylase under standard assay conditions

Structure (SMILES) | V/K [1] | Vmax [2] | Km [3]
CCOC(=O)CNC(=O)[C@@H]1CCCN1C(=O)[C@H](Cc1ccccc1)NC(=O)CNC(=O)OCc1ccccc1 (Cbz-GFPG-OEt) | 3.4 | 30% | 520 µM
CCOC(=O)CNC(=O)[C@@H]1C=CCN1C(=O)[C@H](Cc1ccccc1)NC(=O)CNC(=O)OCc1ccccc1 (Cbz-GF[ΔPro]G-OEt) |  | 95% | 200 µM
O=C(O)CNC(=O)[C@@H]1CCCN1C(=O)[C@@H]1CCCN1 (H-Pro-Pro-Gly-OH) |  | 100% | 200 µM
